Measurements as given in ChEMBL document CHEMBL1155087, “Discovery of novel hydroxy-thiazoles as HIF-alpha prolyl hydroxylase inhibitors: SAR, synthesis, and modeling evaluation” (Bioorg Med Chem Lett, 2008).

Target: Egl nine homolog 1 (Homo sapiens, UniProt Q9GZT9)
Assay: Inhibition of human PHD2 assessed as hydroxylation of Pro564 in human HIF-1alpha by TR-FRET assay

Sequence of Egl nine homolog 1 (Q9GZT9 whole entry): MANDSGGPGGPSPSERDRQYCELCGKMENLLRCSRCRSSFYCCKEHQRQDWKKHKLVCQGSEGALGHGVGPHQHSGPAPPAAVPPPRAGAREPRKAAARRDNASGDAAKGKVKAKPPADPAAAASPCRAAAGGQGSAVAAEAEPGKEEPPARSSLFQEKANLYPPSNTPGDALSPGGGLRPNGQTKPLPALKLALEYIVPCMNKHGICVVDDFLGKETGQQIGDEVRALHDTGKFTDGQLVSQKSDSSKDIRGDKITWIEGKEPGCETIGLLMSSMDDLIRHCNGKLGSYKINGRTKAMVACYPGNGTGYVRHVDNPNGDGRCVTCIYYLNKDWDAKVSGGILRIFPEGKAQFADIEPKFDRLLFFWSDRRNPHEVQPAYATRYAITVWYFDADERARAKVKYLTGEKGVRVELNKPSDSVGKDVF

Question: With `CC(C)(C(=O)O)c1cs/c(=N/C(=O)CS(=O)(=O)c2ccccc2)n1O` as the molecule, how does the IC50 read?
Answer: The IC50 was over 40 µM.

Question: With `CCOC(=O)Cc1csc(NC(=O)CS(=O)(=O)c2ccccc2)n1` as the molecule, how does the IC50 read?
Answer: Its IC50 is over 40 µM.

Question: With `O=C(O)Cc1csc(NC(=O)CS(=O)(=O)c2ccccc2)n1` as the molecule, how does the IC50 read?
Answer: Its IC50 is over 40 µM.

Question: `CCOC(=O)Cc1cs/c(=N/C(=O)CS(=O)(=O)c2ccccc2)n1O` was tested. Which IC50 did it give?
Answer: Its IC50 is over 40 µM.

Question: `O=C(O)Cc1cs/c(=N/C(=O)CCc2ccccc2)n1O` was tested. Which IC50 did it give?
Answer: The IC50 was over 40 µM.
